Results as given in ChEMBL document CHEMBL1129835, “Selective cytotoxicity of certain 9-substituted ellipticines for leukemia cells in a variety of leukemia cell cultures” (1997).

Key:
Type in all cases: functional
Details in all cases: Homo sapiens
CAKI-1 = experiment: The compound was evaluated for cytotoxicity against CAKI-1 renal cancer cell line
PC-3 = experiment: The compound was evaluated for cytotoxicity against PC-3 prostate cancer cell line
LOX IMVI = experiment: The compound was evaluated for cytotoxicity against LOX-IMVI melanoma cell line
HCT-116 = experiment: The compound was evaluated for cytotoxicity against HCT116 colon cancer cell line
U-251 = experiment: The compound was evaluated for cytotoxicity against U251 CNS cancer cell line
MOLT-4 = experiment: The compound was evaluated for cytotoxicity against MOLT-4 leukemia cell line
NCI-H322M = experiment: The compound was evaluated for cytotoxicity against NCI-H322M non-small cell lung cancer cell line
MDA-N = experiment: The compound was evaluated for cytotoxicity against MDA-N breast cancer cell line
IGROV-1 = experiment: The compound was evaluated for cytotoxicity against IGROV1 ovarian cancer cell line

Structure (SMILES) | GI50 (CAKI-1) [nM] | GI50 (PC-3) [nM] | GI50 (LOX IMVI) [nM] | GI50 (HCT-116) [nM] | GI50 (U-251) [nM] | GI50 (MOLT-4) [nM] | GI50 (NCI-H322M) [nM] | GI50 (MDA-N) [nM] | GI50 (IGROV-1) [nM]
Cc1c2ccncc2c(C)c2c1[nH]c1ccc(CNCCN(C)C)cc12 | 260 | 380 | 160 | 170 | 280 | 100 | 250 | 280 | 150
Cc1c2ccncc2c(C)c2c1[nH]c1ccc(CN(CCO)CCO)cc12 | 250 | 340 | 150 | 100 | 260 | 20 | 220 | 370 | 120
